Legend:
[1] = system: HBV replication in HepG2-2.2.15 cells; test: Dot-blot assay of HBV replication; format: cell-based; settings: Hepatitis B virus, 144 h
Method: Compounds active in the HBV assembly assay are tested for their activity and toxicity in cellular assay. In the first anti-viral assay, the ability of compounds to inhibit HBV replication in an HBV-producing hepatoma cell line using the dot-blot method is evaluated.
Briefly, confluent monolayers of HepG2-2.2.15 cells are incubated with complete medium containing various concentrations of a test compound. Three days later, the culture medium is replaced with fresh medium containing the appropriately diluted test compound. Six days following the initial administration of the test compound, the cell culture supernatant is collected, and cell lysis is performed. The samples are applied onto Nylos membranes and DNA is immobilized to the membrane by UV cross-linking. After pre-hybridization, the HBV probe is added and the hybridization is performed overnight. The membranes are exposed to the Kodak films; antiviral activity is calculated from the reduction in HBV DNA levels (EC50). The EC50 for antiviral activity is calculated from the dose response curves of active compounds.
In the first anti-viral assay, the ability of compounds to inhibit HBV replication in an HBV-producing hepatoma cell line using the dot-blot method was evaluated.
Confluent monolayers of HepG2-2.2.15 cells were incubated with complete medium containing various concentrations of a test compound. Three days later, the culture medium was replaced with fresh medium containing the appropriately diluted test compound. Six days following the initial administration of the test compound, the cell culture supernatant was collected, and cell lysis was performed. The samples were applied onto Nylos membranes and DNA was immobilized to the membrane by UV cross-linking. After pre-hybridization, the HBV probe was added and the hybridization was performed overnight. The membranes were exposed to the Kodak films; antiviral activity was calculated from the reduction in HBV DNA levels (EC50). The EC50 for antiviral activity was calculated from the dose response curves of active compounds. […]

[2] = target: HBV C150Bo capsid protein (HBV CA protein) (Hepatitis B virus genotype D subtype adw, UniProt P03147, C107A/C48A/C61A/R150C); test: HBV assembly assay (fluorescence quenching in vitro assembly); format: biochemical; settings: for Activity in HBV assembly assay: at 10 μM
HBV C150Bo capsid protein (HBV CA protein), sequence (P03147 1-150 C48A/C61A/C107A/R150C): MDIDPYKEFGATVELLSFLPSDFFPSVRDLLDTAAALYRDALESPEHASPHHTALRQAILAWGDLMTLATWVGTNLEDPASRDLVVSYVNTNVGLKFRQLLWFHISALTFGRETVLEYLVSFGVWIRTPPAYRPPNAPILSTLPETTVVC

SMILES | inhibition at 10 µM [1] [%] | Activity in HBV assembly assay [2] | EC50 in HBV assembly assay ([2]; control compounds)
O=C(Nc1cc(F)c(F)c(F)c1)c1ccc(F)c(S(=O)(=O)N2CCC(O)C(F)C2)c1 (single isomer, unassigned) [960D1] | > 50 | + (‘+’ indicates >50% activity at 10 μM) | 
O=C(Nc1cc(F)c(F)c(F)c1)c1ccc(F)c(S(=O)(=O)N2CCC(O)C(F)C2)c1 (single isomer, unassigned) [960D2] |  | + (‘+’ indicates >50% activity at 10 μM) | 
CC1CN(S(=O)(=O)c2cccc(C(=O)Nc3cc(F)c(F)c(F)c3)c2)CCC1O (stereo not shown) [610D2] | > 50 | + (‘+’ indicates >50% activity at 10 μM) | 
O=C(Nc1ccc(F)c(C(F)F)c1)c1cccc(S(=O)(=O)N2CCCC2CO)c1 (stereo not shown) [677R] | > 50 | + (‘+’ indicates >50% activity at 10 μM) | 
O=C(Nc1ccc(F)c(Cl)c1)c1cccc(S(=O)(=O)N2CCC(O)C(Cc3ccccc3)C2)c1 (stereo not shown) [713D2] | > 50 | + (‘+’ indicates >50% activity at 10 μM) | 
O=C(Nc1ccc(F)c(Cl)c1)c1cccc(S(=O)(=O)N2CCC(O)C(CO)C2)c1 (stereo not shown) [719D1] | > 50 | + (‘+’ indicates >50% activity at 10 μM) | 
O=C(Nc1ccc(F)c(Cl)c1)c1cccc(S(=O)(=O)N2CCC(CO)C(O)C2)c1 (stereo not shown) [725D1] | > 50 | + (‘+’ indicates >50% activity at 10 μM) | 
CC1CN(S(=O)(=O)c2cccc(C(=O)Nc3cc(F)c(F)c(F)c3)c2)CCC1CCO (stereo not shown) [743D1] | > 50 | + (‘+’ indicates >50% activity at 10 μM) | 
O=C(Nc1ccc(F)c(C(F)F)c1)c1cccc(S(=O)(=O)N2CCC(O)C(F)C2)c1 (stereo not shown) [820D2] | > 50 | + (‘+’ indicates >50% activity at 10 μM) | 
O=C(Nc1cc(F)c(F)c(C(F)F)c1)c1cccc(S(=O)(=O)N2CCC(O)C(F)C2)c1 (stereo not shown) [824D2] | > 50 | + (‘+’ indicates >50% activity at 10 μM) | 
O=C(Nc1ccc(F)c(Br)c1)c1cccc(S(=O)(=O)NC2CCCC(O)C2)c1 (stereo not shown) [867D2] | > 50 | + (‘+’ indicates >50% activity at 10 μM) | 
O=C(Nc1cc(F)c(F)c(F)c1)c1ccc(F)c(S(=O)(=O)C2CCC(CO)C(O)C2)c1 (stereo not shown) [946D2] | > 50 | + (‘+’ indicates >50% activity at 10 μM) | 
O=C(Nc1ccc(F)c(Cl)c1)c1ccc(F)c(S(=O)(=O)N2CCC(CO)C(O)C2)c1 (stereo not shown) [955D1] | > 50 | + (‘+’ indicates >50% activity at 10 μM) | 
O=C(Nc1ccc(F)c(Cl)c1)c1ccc(F)c(S(=O)(=O)N2CCC(CO)C(O)C2)c1 (stereo not shown) [955D2] |  | + (‘+’ indicates >50% activity at 10 μM) | 
O=C(Nc1ccc(F)c(Cl)c1)c1ccc(Cl)c(S(=O)(=O)N2CCCC2CO)c1 (stereo not shown) [1094S] | > 50 | + (‘+’ indicates >50% activity at 10 μM) | 
O=C(Nc1ccc(F)c(Cl)c1)c1cc(S(=O)(=O)NC2CC(O)C2)ccc1Cl (stereo not shown) [1134CT2] | > 50 | + (‘+’ indicates >50% activity at 10 μM) | 
O=C(Nc1cc(F)c(F)c(Cl)c1)c1ccc(F)c(S(=O)(=O)N2CCC(O)C(F)C2)c1 (stereo not shown) [1135D1] | > 50 | + (‘+’ indicates >50% activity at 10 μM) | 
O=C(Nc1cc(F)c(F)c(F)c1)c1cc(S(=O)(=O)NC2CC(O)C2)c(F)cc1Cl (stereo not shown) [1374CT1] | > 50 | + (‘+’ indicates >50% activity at 10 μM) | 
O=C(Nc1cc(F)c(F)c(F)c1)c1cc(S(=O)(=O)NC2CC(O)C2)c(F)cc1Cl (stereo not shown) [1374CT2] |  | + (‘+’ indicates >50% activity at 10 μM) | 

SMILES | inhibition at 10 µM [1] [%] | Activity in HBV assembly assay [2] | EC50 in HBV assembly assay ([2]; control compounds)
O=C(Nc1ccc(F)c(F)c1)c1cc(S(=O)(=O)NC2CC(O)C2)c(F)cc1Cl (stereo not shown) [1378CT2] | > 50 | + (‘+’ indicates >50% activity at 10 μM) | 
COC(=O)C1=C(C)NC(c2ccccn2)=NC1c1ccc(F)cc1Cl (stereo not shown) [HAP-1, reference compound] |  |  | consistent with the literature
O=C(Nc1cccc(Br)c1)c1cccc(S(=O)(=O)N2CCC(CO)CC2)c1 [compound 065] | > 50 | + (‘+’ indicates >50% activity at 10 μM) | 
O=C(Nc1cccc(Br)c1)c1cccc(S(=O)(=O)N2CC(O)C2)c1 [compound 078] | > 50 | + (‘+’ indicates >50% activity at 10 μM) | 
CN(CCO)S(=O)(=O)c1cccc(C(=O)Nc2cccc(Br)c2)c1 [compound 079] | > 50 | + (‘+’ indicates >50% activity at 10 μM) | 
CC(=O)N1CCN(S(=O)(=O)c2cccc(C(=O)Nc3cccc(Br)c3)c2)CC1 [compound 119] | > 50 | + (‘+’ indicates >50% activity at 10 μM) | 
CCCC(=O)N1CCN(S(=O)(=O)c2cccc(C(=O)Nc3cccc(Br)c3)c2)CC1 [compound 121] | > 50 | + (‘+’ indicates >50% activity at 10 μM) | 
O=C(Nc1cccc(Br)c1)c1cccc(S(=O)(=O)N2CCN(c3ccncc3)CC2)c1 [compound 126] | > 50 | + (‘+’ indicates >50% activity at 10 μM) | 
O=C(Nc1cccc(Br)c1)c1cccc(S(=O)(=O)N2CCN(C(=O)C3(O)CC3)CC2)c1 [compound 129] | > 50 | + (‘+’ indicates >50% activity at 10 μM) | 
Cc1cc(NC(=O)c2cccc(S(=O)(=O)N3CCN(C(=O)C4CC4)CC3)c2)ccc1F [compound 148] | > 50 | + (‘+’ indicates >50% activity at 10 μM) | 
COC1CN(S(=O)(=O)c2cccc(C(=O)Nc3cccc(Cl)c3)c2)C1 [compound 191] | > 50 | + (‘+’ indicates >50% activity at 10 μM) | 
O=C(Nc1ccc(F)c(Cl)c1)c1cccc(S(=O)(=O)N2CCCC2CO)c1 (stereo not shown) [compound 208] | > 50 | + (‘+’ indicates >50% activity at 10 μM) | 
O=C(Nc1cc(F)c(F)c(F)c1)c1cccc(S(=O)(=O)N2CCC(CO)CC2)c1 [compound 258] | > 50 | + (‘+’ indicates >50% activity at 10 μM) | 
O=C(Nc1cc(F)c(F)c(F)c1)c1cccc(S(=O)(=O)N2CCC(O)CC2)c1 [compound 318] | > 50 | + (‘+’ indicates >50% activity at 10 μM) | 
CN(CCO)S(=O)(=O)c1cccc(C(=O)Nc2ccc(F)cc2)c1 [compound 332] | > 50 | + (‘+’ indicates >50% activity at 10 μM) | 
CN(CC(O)CO)S(=O)(=O)c1cccc(C(=O)Nc2cccc(Cl)c2)c1 (stereo not shown) [compound 366] | > 50 | + (‘+’ indicates >50% activity at 10 μM) | 
O=C(Nc1ccc(F)c(Br)c1)c1cccc(S(=O)(=O)N2CC(O)C2)c1 [compound 407] | > 50 | + (‘+’ indicates >50% activity at 10 μM) | 
N#Cc1cc(NC(=O)c2cccc(S(=O)(=O)N3CCC(O)CC3)c2)ccc1F [compound 419] | > 50 | + (‘+’ indicates >50% activity at 10 μM) | 

Source: patent publication US9751857B2, “Hepatitis B antiviral agents” (NOVIRA THERAPEUTICS, INC., priority 2011, dated 2017)
